What was measured:
panel of 442 kinases [1] = target: T1, panel of 442 kinases (Homo sapiens, UniProt P00519, Y253F); format: binding; details: Compound Concentration 10 µM
T1 construct: purchased KINOMEscan
From the text: (§1) We assessed the selectivity of members of this scaffold using the KINOMEscan methodology across a near comprehensive panel of 442 kinases [[18,27]].

panel of 442 kinases [2] = target: T2, panel of 442 kinases (Homo sapiens, UniProt Q6PHR2); format: binding; details: kinase ULK3; compound concentration 10 µM
T2 construct: purchased KINOMEscan
T2 sequence (Q6PHR2 1-472): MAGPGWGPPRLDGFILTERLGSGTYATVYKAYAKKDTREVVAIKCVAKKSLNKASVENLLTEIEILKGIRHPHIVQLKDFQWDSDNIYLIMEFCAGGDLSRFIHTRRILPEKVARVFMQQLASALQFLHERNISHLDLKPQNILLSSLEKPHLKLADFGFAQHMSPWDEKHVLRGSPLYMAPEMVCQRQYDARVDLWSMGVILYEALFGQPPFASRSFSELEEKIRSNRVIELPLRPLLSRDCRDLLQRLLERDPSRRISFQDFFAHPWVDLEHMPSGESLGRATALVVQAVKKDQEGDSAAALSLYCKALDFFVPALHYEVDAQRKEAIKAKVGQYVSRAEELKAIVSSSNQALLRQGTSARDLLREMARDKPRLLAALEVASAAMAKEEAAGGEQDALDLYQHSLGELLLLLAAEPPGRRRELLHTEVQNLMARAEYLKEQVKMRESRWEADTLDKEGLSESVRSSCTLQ
From the text: as §1

SMILES	KINOMEscan: ABL1(Y253F)-phosphorylated (panel of 442 kinases [1])	% Ctrl, ULK3 (panel of 442 kinases [2]) [% Ctrl]
COc1cc(C(=O)N2CCC(N3CCN(C)CC3)CC2)ccc1Nc1ncc2c(n1)N(C)c1ccccc1C(=O)N2C [15 (LRRK2-IN-1)]	89	100
COc1cc(C(=O)N2CCC(N3CCN(C)CC3)CC2)ccc1Nc1ncc2c(n1)N1CCc3cccc(c31)C(=O)N2C [Compound 24]	–	100
COc1cc(C(=O)N2CCC(N3CCN(C)CC3)CC2)ccc1Nc1ncc2c(n1)N(C1CCCC1)c1ccccc1C(=O)N2C [Compound 25, 11-cyclopentyl-2-((2-methoxy-4-(4-(4-methylpiperazin-1-yl)piperidine-1-carbonyl)phenyl)amino)-5-methyl-5H-benzo[e]pyrimido[5,4-b][1,4]diazepin-6(11H)-one]	60	100
CCOc1cc(C(=O)N2CCC(N3CCN(C)CC3)CC2)ccc1Nc1ncc2c(n1)N(C1CCCC1)c1ccccc1C(=O)N2C [Compound 26]	100	100
